Data reported in patent US20250215012A1, “IKZF2 DEGRADERS AND USES THEREOF” (REGENTS OF THE UNIVERSITY OF MICHIGAN, priority 2022, published 2025).

Molecular target: IKZF2 (Homo sapiens (Human), UniProt Q96SW2+Q9UKS7)
Test: IKZF2 HiBiT Assay (Jurkat-IKZF2-HiBiT cell line)
Type: cell-based
Details: Jurkat-IKZF2-HiBiT cells, 24 hours; for DC50: read-out: HiBit assay degradation analysis DC50; for Dmax: read-out: HiBit assay degradation analysis Dmax
Procedure, shortened: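 Jurkat cells carrying HiBiT-tagged IKZF2 were exposed to serially diluted compound for 24 h at 37 °C. Remaining IKZF2 was measured by Nano-Glo HiBiT lytic luminescence after 10-20 min at room temperature. Signal was normalized to DMSO, and IC50 came from a four-parameter variable-slope fit.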

Sequence of IKZF2 (Q9UKS7 whole entry): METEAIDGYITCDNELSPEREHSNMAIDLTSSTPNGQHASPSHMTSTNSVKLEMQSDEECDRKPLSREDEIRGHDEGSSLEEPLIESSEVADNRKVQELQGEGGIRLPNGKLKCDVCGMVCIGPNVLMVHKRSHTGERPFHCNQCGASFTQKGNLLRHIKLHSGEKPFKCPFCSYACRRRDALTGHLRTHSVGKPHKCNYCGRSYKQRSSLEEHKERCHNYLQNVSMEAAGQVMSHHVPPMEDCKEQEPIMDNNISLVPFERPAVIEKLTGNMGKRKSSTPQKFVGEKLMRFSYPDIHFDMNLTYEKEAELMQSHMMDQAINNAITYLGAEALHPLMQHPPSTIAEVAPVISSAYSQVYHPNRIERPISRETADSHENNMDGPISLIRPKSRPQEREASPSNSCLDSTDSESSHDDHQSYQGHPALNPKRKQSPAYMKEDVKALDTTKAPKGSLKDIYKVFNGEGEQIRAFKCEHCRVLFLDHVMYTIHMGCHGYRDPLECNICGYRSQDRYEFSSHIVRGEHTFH
Sequence of IKZF2 (Q96SW2 whole entry): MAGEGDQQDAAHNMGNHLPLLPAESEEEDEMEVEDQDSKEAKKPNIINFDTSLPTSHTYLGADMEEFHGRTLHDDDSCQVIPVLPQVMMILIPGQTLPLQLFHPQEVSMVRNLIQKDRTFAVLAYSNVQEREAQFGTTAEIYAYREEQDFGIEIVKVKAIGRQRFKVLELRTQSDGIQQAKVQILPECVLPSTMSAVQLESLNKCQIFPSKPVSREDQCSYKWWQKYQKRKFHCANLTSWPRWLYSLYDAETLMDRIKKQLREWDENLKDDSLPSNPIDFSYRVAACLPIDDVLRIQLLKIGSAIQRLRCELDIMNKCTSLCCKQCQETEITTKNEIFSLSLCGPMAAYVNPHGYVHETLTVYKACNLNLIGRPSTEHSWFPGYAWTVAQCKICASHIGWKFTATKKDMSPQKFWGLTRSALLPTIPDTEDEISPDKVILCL
Sequence of IKZF2 (Q16531 whole entry partner): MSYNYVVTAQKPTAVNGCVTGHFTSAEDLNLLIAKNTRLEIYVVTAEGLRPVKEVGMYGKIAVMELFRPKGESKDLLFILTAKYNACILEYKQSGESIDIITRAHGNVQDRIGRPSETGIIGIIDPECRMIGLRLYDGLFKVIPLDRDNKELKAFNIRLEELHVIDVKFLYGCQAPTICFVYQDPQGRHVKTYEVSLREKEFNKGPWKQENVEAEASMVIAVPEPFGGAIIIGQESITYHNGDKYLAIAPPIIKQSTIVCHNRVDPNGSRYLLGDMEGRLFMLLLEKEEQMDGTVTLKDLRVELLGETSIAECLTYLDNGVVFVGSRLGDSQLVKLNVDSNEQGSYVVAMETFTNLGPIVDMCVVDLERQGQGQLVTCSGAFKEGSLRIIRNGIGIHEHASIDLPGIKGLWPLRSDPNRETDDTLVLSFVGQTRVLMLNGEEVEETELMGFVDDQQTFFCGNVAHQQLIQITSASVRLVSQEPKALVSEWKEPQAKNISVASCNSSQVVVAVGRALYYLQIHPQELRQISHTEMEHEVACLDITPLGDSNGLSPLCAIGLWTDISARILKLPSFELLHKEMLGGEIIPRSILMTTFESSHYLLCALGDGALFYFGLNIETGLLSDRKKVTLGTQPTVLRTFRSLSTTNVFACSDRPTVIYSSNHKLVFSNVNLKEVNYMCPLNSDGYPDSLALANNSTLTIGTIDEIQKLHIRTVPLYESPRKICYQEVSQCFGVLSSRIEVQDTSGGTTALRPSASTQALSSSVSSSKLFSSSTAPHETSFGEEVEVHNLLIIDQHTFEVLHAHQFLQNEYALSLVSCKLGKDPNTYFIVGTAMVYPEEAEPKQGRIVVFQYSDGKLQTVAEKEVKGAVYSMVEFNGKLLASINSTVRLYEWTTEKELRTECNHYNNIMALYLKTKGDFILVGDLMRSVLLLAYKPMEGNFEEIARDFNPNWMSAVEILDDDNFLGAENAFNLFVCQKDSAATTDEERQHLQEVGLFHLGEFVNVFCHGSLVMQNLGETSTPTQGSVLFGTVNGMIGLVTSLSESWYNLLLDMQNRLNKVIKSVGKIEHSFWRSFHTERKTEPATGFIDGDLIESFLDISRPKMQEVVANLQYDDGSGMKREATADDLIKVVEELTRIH

`O=C1CCC(N2Cc3c(ccc4c3OCC43CCN(Cc4ccn(-c5ccccc5Cl)n4)CC3)C2=O)C(=O)N1` (stereo not drawn) [Compound A321, 3-(1′-((1-(2-chlorophenyl)-1H-pyrazol-3-yl)methyl)-6-oxo-6,8-dihydro-2H,7H-spiro[furo[2,3-e]isoindole-3,4′-piperidin]-7-yl)piperidine-2,6-dione] was tested, and the DC50 was > 0.5 µM and the Dmax was < 40%.

Molecule `O=C1CCC(N2Cc3c(ccc4c3OCC43CCN(Cc4ccc5[nH]cnc5c4)CC3)C2=O)C(=O)N1` (stereo not drawn) [Compound A70, 3-(1′-((1H-benzo[d]imidazol-5-yl)methyl)-6-oxo-6,8-dihydro-2H,7H-spiro[furo[2,3-e]isoindole-3,4′-piperidin]-7-yl)piperidine-2,6-dione] has a DC50 of 0.2 to 0.5 µM and a Dmax of 60 to 80%.

With `CCOc1cccc(CN2CCC3(CC2)COc2c3ccc3c2CN(C2CCC(=O)NC2=O)C3=O)n1` (stereo not drawn) [Compound A252, 3-(1′-((6-ethoxypyridin-2-yl)methyl)-6-oxo-6,8-dihydro-2H,7H-spiro[furo[2,3-e]isoindole-3,4′-piperidin]-7-yl)piperidine-2,6-dione] the DC50 was > 0.5 µM and the Dmax was < 40%.

For `O=C1CCC(N2Cc3c(ccc4c3OCC43CCN(Cc4ccc5c(c4)NC(=O)CO5)CC3)C2=O)C(=O)N1` (stereo not drawn) [Compound A153, 3-(6-oxo-1′-((3-oxo-3,4-dihydro-2H-benzo[b][1,4]oxazin-6-yl)methyl)-6,8-dihydro-2H,7H-spiro[furo[2,3-e]isoindole-3,4′-piperidin]-7-yl)piperidine-2,6-dione], the DC50 was 0.05 to 0.2 µM and the Dmax was 60 to 80%.

`O=C1CCC(N2Cc3c(ccc4c3OCC43CCN(Cc4cnn(Cc5ccc(F)cc5)c4)CC3)C2=O)C(=O)N1` (stereo not drawn) [Compound A237, 3-(1′-((1-(4-fluorobenzyl)-1H-pyrazol-4-yl)methyl)-6-oxo-6,8-dihydro-2H,7H-spiro[furo[2,3-e]isoindole-3,4′-piperidin]-7-yl)piperidine-2,6-dione] gave a DC50 of 0.05 to 0.2 µM and a Dmax of 60 to 80%.

`O=C1CC[C@H](N2Cc3c(ccc4c3OCC43CCN(Cc4cccc(-c5cnn(C[C@@H]6COCCO6)c5)c4)CC3)C2=O)C(=O)N1` [Compound A272, (S)-3-(1′-(3-(1-(((R)-1,4-dioxan-2-yl)methyl)-1H-pyrazol-4-yl)benzyl)-6-oxo-6,8-dihydro-2H,7H-spiro[furo[2,3-e]isoindole-3,4′-piperidin]-7-yl)piperidine-2,6-dione] was tested, and the DC50 was 0.05 to 0.2 µM and the Dmax was 60 to 80%.

In the case of `O=C1CC[C@H](N2Cc3c(ccc4c3OCC43CCN(C4Cc5ccccc5C4)CC3)C2=O)C(=O)N1` [Compound A275, (S)-3-(1′-(2,3-dihydro-1H-inden-2-yl)-6-oxo-6,8-dihydro-2H,7H-spiro[furo[2,3-e]isoindole-3,4′-piperidin]-7-yl)piperidine-2,6-dione], the DC50 was > 0.5 µM and the Dmax was 40 to 60%.

For `COc1ccc(CN2CCC3(CC2)COc2c3ccc3c2CN(C2CCC(=O)NC2=O)C3=O)cc1` (stereo not drawn) [Compound A211, 3-(1′-(4-methoxybenzyl)-6-oxo-6,8-dihydro-2H,7H-spiro[furo[2,3-e]isoindole-3,4′-piperidin]-7-yl)piperidine-2,6-dione], the DC50 was > 0.5 µM and the Dmax was < 40%.

`O=C1CCC(N2Cc3c(ccc4c3OCC43CCN(Cc4ncnn4-c4ccccc4)CC3)C2=O)C(=O)N1` (stereo not drawn) [Compound A254, 3-(6-oxo-1′-((1-phenyl-1H-1,2,4-triazol-5-yl)methyl)-6,8-dihydro-2H,7H-spiro[furo[2,3-e]isoindole-3,4′-piperidin]-7-yl)piperidine-2,6-dione] was tested, and the DC50 was > 0.5 µM and the Dmax was < 40%.

For `O=C1CCC(N2Cc3c(ccc4c3OCC43CCN(CC4(c5ccccc5)CC4)CC3)C2=O)C(=O)N1` (stereo not drawn) [Compound A333, 3-(6-oxo-1′-((1-phenylcyclopropyl)methyl)-6,8-dihydro-2H,7H-spiro[furo[2,3-e]isoindole-3,4′-piperidin]-7-yl)piperidine-2,6-dione], the DC50 was > 0.5 µM and the Dmax was 40 to 60%.

`O=C1CCC(N2Cc3c(ccc4c3OCC43CCN(Cc4cccc5ccoc45)CC3)C2=O)C(=O)N1` (stereo not drawn) [Compound A115, 3-(1′-(benzofuran-7-ylmethyl)-6-oxo-6,8-dihydro-2H,7H-spiro[furo[2,3-e]isoindole-3,4′-piperidin]-7-yl)piperidine-2,6-dione] gave a DC50 of 0.05 to 0.2 µM and a Dmax of 60 to 80%.

In the case of `CC(C)n1cc(-c2cccc(CN3CCC4(CC3)COc3c4ccc4c3CN(C3CCC(=O)NC3=O)C4=O)c2)cn1` (stereo not drawn) [Compound A146, 3-(1′-(3-(1-isopropyl-1H-pyrazol-4-yl)benzyl)-6-oxo-6,8-dihydro-2H,7H-spiro[furo[2,3-e]isoindole-3,4′-piperidin]-7-yl)piperidine-2,6-dione], the DC50 was < 0.05 µM and the Dmax was 60 to 80%.

In the case of `O=C1CC[C@H](N2Cc3c(ccc4c3OCC43CCN(Cc4cnn(S(=O)(=O)c5ccc(Cl)cc5)c4)CC3)C2=O)C(=O)N1` [Compound A352, (S)-3-(1′-((1-((4-chlorophenyl)sulfonyl)-1H-pyrazol-4-yl)methyl)-6-oxo-6,8-dihydro-2H,7H-spiro[furo[2,3-e]isoindole-3,4′-piperidin]-7-yl)piperidine-2,6-dione], the Dmax was < 40%.

With `O=C1CCC(N2Cc3c(ccc4c3OCCC43CCN(Cc4ccccc4)CC3)C2=O)C(=O)N1` (stereo not drawn) [Compound A13, 3-(1-benzyl-7′-oxo-2′,3′,7′,9′-tetrahydro-8′H-spiro[piperidine-4,4′-pyrano[2,3-e]isoindol]-8′-yl)piperidine-2,6-dione] the DC50 was > 0.5 µM and the Dmax was < 40%.

For `Cn1cc2ccc(CN3CCC4(CC3)COc3c4ccc4c3CN([C@H]3CCC(=O)NC3=O)C4=O)cc2n1` [Compound A169, (S)-3-(1′-((2-methyl-2H-indazol-6-yl)methyl)-6-oxo-6,8-dihydro-2H,7H-spiro[furo[2,3-e]isoindole-3,4′-piperidin]-7-yl)piperidine-2,6-dione], the DC50 was < 0.05 µM and the Dmax was 60 to 80%.

`CCn1cc2ccc(CN3CCC4(CC3)COc3c4ccc4c3CN([C@H]3CCC(=O)NC3=O)C4=O)cc2n1` [Compound A299, (S)-3-(1′-((2-ethyl-2H-indazol-6-yl)methyl)-6-oxo-6,8-dihydro-2H,7H-spiro[furo[2,3-e]isoindole-3,4′-piperidin]-7-yl)piperidine-2,6-dione] was tested, and the DC50 was < 0.05 µM and the Dmax was 60 to 80%.

In the case of `O=C1CCC(N2Cc3c(ccc4c3OCC43CCN(Cc4cccc(C(=O)O)c4)CC3)C2=O)C(=O)N1` (stereo not drawn) [Compound A99, 3-((7-(2,6-dioxopiperidin-3-yl)-6-oxo-7,8-dihydro-2H,6H-spiro[furo[2,3-e]isoindole-3,4′-piperidin]-1′-yl)methyl)benzoic acid], the DC50 was > 0.5 µM and the Dmax was < 40%.

For `O=C1CCC(N2Cc3c(ccc4c3OCC43CCN(Cc4ccn(-c5ccc(F)cc5)n4)CC3)C2=O)C(=O)N1` (stereo not drawn) [Compound A322, 3-(1′-((1-(4-fluorophenyl)-1H-pyrazol-3-yl)methyl)-6-oxo-6,8-dihydro-2H,7H-spiro[furo[2,3-e]isoindole-3,4′-piperidin]-7-yl)piperidine-2,6-dione], the DC50 was > 0.5 µM and the Dmax was < 40%.

With `O=C1CC[C@H](N2Cc3c(ccc4c3OCC43CCN(Cc4cnn(S(=O)(=O)c5ccccc5F)c4)CC3)C2=O)C(=O)N1` [Compound A355, (S)-3-(1′-((1-((2-fluorophenyl)sulfonyl)-1H-pyrazol-4-yl)methyl)-6-oxo-6,8-dihydro-2H,7H-spiro[furo[2,3-e]isoindole-3,4′-piperidin]-7-yl)piperidine-2,6-dione] the “HiBit assay degradation analysis Dmax” value was “C (“C” >=40% and <60%)” and the DC50 was 0.2 to 0.5 µM.

For `O=C1CCC(N2Cc3c(ccc4c3OCC43CCN(Cc4cnc5[nH]ccc5c4)CC3)C2=O)C(=O)N1` (stereo not drawn) [Compound A163, 3-(1′-((1H-pyrrolo[2,3-b]pyridin-5-yl)methyl)-6-oxo-6,8-dihydro-2H,7H-spiro[furo[2,3-e]isoindole-3,4′-piperidin]-7-yl)piperidine-2,6-dione], the DC50 was < 0.05 µM and the Dmax was 60 to 80%.

`O=C1CCC(N2Cc3c(ccc4c3OCC43CCN(Cc4ccc5oncc5c4)CC3)C2=O)C(=O)N1` (stereo not drawn) [Compound A60, 3-(1′-(benzo[d]isoxazol-5-ylmethyl)-6-oxo-6,8-dihydro-2H,7H-spiro[furo[2,3-e]isoindole-3,4′-piperidin]-7-yl)piperidine-2,6-dione] was tested, and the DC50 was > 0.5 µM and the Dmax was 40 to 60%.

`O=C1CCC(N2Cc3c(ccc4c3OCC43CCN(Cc4cccc5[nH]cc(Cl)c45)CC3)C2=O)C(=O)N1` (stereo not drawn) [Compound A141, 3-(1′-((3-chloro-1H-indol-4-yl)methyl)-6-oxo-6,8-dihydro-2H,7H-spiro[furo[2,3-e]isoindole-3,4′-piperidin]-7-yl)piperidine-2,6-dione] was tested, and the DC50 was < 0.05 µM and the Dmax was 60 to 80%.

`O=C1CCC(N2Cc3c(ccc4c3OCC43CCN(Cc4ccc5cccnc5c4)CC3)C2=O)C(=O)N1` (stereo not drawn) [Compound A64, 3-(6-oxo-1′-(quinolin-7-ylmethyl)-6,8-dihydro-2H,7H-spiro[furo[2,3-e]isoindole-3,4′-piperidin]-7-yl)piperidine-2,6-dione] gave a DC50 of 0.05 to 0.2 µM and a Dmax of 60 to 80%.

In the case of `O=C1CC[C@H](N2Cc3c(ccc4c3OCC43CCN(Cc4ccc5cn(C6COC6)nc5c4)CC3)C2=O)C(=O)N1` [Compound A285, (S)-3-(1′-((2-(oxetan-3-yl)-2H-indazol-6-yl)methyl)-6-oxo-6,8-dihydro-2H,7H-spiro[furo[2,3-e]isoindole-3,4′-piperidin]-7-yl)piperidine-2,6-dione], the DC50 was < 0.05 µM and the Dmax was 60 to 80%.

With `O=C1CCC(N2Cc3c(ccc4c3OCC43CCN(Cc4cccc(-c5nccs5)c4)CC3)C2=O)C(=O)N1` (stereo not drawn) [Compound A106, 3-(6-oxo-1′-(3-(thiazol-2-yl)benzyl)-6,8-dihydro-2H,7H-spiro[furo[2,3-e]isoindole-3,4′-piperidin]-7-yl)piperidine-2,6-dione] the DC50 was < 0.05 µM and the Dmax was 60 to 80%.

In the case of `Cn1ncc2cc(CN3CCC4(CC3)COc3c4ccc4c3CN(C3CCC(=O)NC3=O)C4=O)ccc21` (stereo not drawn) [Compound A217, 3-(1′-((1-methyl-1H-indazol-5-yl)methyl)-6-oxo-6,8-dihydro-2H,7H-spiro[furo[2,3-e]isoindole-3,4′-piperidin]-7-yl)piperidine-2,6-dione], the DC50 was > 0.5 µM and the Dmax was < 40%.
